Tests used:
[1] = system: ALS-SOD1 (G93A) transgenic mice; conditions: cited from earlier work
[2] = references (43), (5); cited from earlier work
[3] = Peroxynitrite-mediated nitration of GYA peptide; type: biochemical; conditions: 2 mM GYA, 10 μM MP or SOD subunit, 1 mM CO2, pH 7.4, 37° C.
Procedure: Nitration efficiency, defined as the moles of nitrated GYA peptide formed per mole of peroxynitrite added, was determined at a fixed concentration of 10 μM MP or Cu,Zn SOD subunit, or 1 mM CO2 as described below. Increasing amounts of peroxynitrite were added in a sequential manner in order to determine whether nitration efficiency varied with concentration and to determine whether nitration catalysis was maintained with multiple additions (see INSET). Nitration efficiency was calculated for each peroxynitrite addition; the values shown are the average of all nine peroxynitrite additions. Absorbance changes were monitored simultaneously at 380, 430, and 460 nm.
For nitration of GYA peptide (see FIG. 6), reaction solutions contained 2 mM GYA and 10 μM of the indicated MP in 1.4 ml of 0.1 M potassium phosphate, pH 7.4 at 37° C. Comparisons with two previously characterized nitration catalysts, human Cu,Zn superoxide dismutase (hCu,Zn SOD) and carbon dioxide, were made using 10 μM of SOD subunit and 25 mM potassium bicarbonate, respectively, which was pH-adjusted to 7.4. This level of bicarbonate results in rapid saturation of the solution with carbon dioxide (˜1 mM). Solutions were placed into a rapidly stirred cuvette and nine bolus additions (50 μM×3, 100 μM×3, and 200 μM×3) of peroxynitrite were made sequentially while the absorbance was monitored. Increasing amounts of peroxynitrite were added in a sequential manner in order to determine whether nitration efficiency varied with concentration and to determine whether nitration catalysis was maintained with multiple additions (see FIG. 6 inset). Nitration efficiency was defined as the amount of nitropeptide formed per amount of peroxynitrite added and was calculated for each peroxynitrite addition; the values shown are the average of all nine peroxynitrite additions. The absorbance changes associated with nitrotyrosine peptide production were monitored simultaneously at 380, 430, and 460 nm. The extinction coefficients for nitrated GYA at pH 7.4 are 4,400 M^−1cm^−1 at 430 nm and 2,200 M^−1cm^−1 at both 380 and 460 nm. […] Wavelengths used to quantify nitrotyrosine production were chosen to minimize interference by the particular metalloporphyrin used. Experiments using HPA as a nitration target (FIG. 7) contained 8 mM HPA in either 0.1 M potassium phosphate, pH 7.4 or 0.1 M sodium borate, pH 9.1.
The relative abilities of several MPs to enhance nitration of the tripeptide GYA was compared using 10 μM MP and sequential bolus additions of 50 μM (×3), 100 μM (×3), and 200 μM (×3)peroxynitrite (FIG. 6, inset).

bovine serum albumin = conditions: reference (35); cited from earlier work

Compound: Nc1nc2ccc(OC(F)(F)F)cc2s1 [Rilutek, riluzole]
- extension of lifespan [1]: about 7 days

Compound: Cu,Zn superoxide dismutase: human Cu,Zn superoxide dismutase, previously characterized endogenous nitration catalyst
- rate of reaction with superoxide [2]: 2e+09 M⁻¹ s⁻¹
- enhancement of nitration yield [3]: 2 fold

Compound: iron(III)-tetra-(2,4,6,-trimethyl-3-,3-disulfonatophenyl)-porphyrin [FeTMPS]
- nitration of tyrosine residues in bovine serum albumin (bovine serum albumin): inhibited

— patent US6372727B1, “Metalloporphyrin treatment of neurologic disease” (UAB Research Foundation, priority 1999, dated 2002)
